How the values were obtained:
language disorder = assay: Effect of EPA-E on a language-disordered patient with a history of cerebral infarction; assay type: in vivo, human
Procedure: A person with the history of cerebral infarction was treated. The patient experienced cerebral infarction in November, 2001, and started rehabilitation therapy of left hemiplegia from April, 2002. In June, 2002, the patient was hospitalized for 1 month because of recurrence of the cerebral infarction, and again started the rehabilitation therapy from August, 2002. The drugs that the patient had been taking before the EPA-E include: Gramalil (trade name; manufactured by Fujisawa Pharmaceutical Co., Ltd.; generic name, tiapride hydrochloride), Ketas (trade name; manufactured by Kyorin Pharmaceutical Co., Ltd.; generic name, ibudilast), Panaldine (trade name; manufactured by Daiichi Pharmaceutical Co., Ltd.; generic name, ticlopidine hydrochloride), Nivadil (trade name; manufactured by Fujisawa Pharmaceutical Co., Ltd.; generic name, nilvadipine), Altat (trade name; manufactured by Teikoku Hormone Mfg. Co., Ltd.; generic name, roxatidine acetate hydrochloride).
Before taking EPA-E, the patient could barely bring out a word. From September, 2002, the patient was administered with Epadel S600 (trade name; manufactured by Mochida Pharmaceutical Co., Ltd.; generic name, ethyl icosapentate) at a dose 600 mg and 3 times a day (namely, at a daily dose of 1800 mg).

rat = conditions: delayed discrimination test in rat; cited from earlier work
[1] = test system: cell derived from mouse connective tissue; conditions: cited from earlier work

SMILES | speech / conversation of the patient (language disorder; 1800 mg/day from September 2002, December 2002) | frequency of conversation, vocabulary, communication ability (language disorder; 1800 mg/day from September 2002, February 2003) | frequency of conversation and vocabulary (language disorder; 1800 mg/day from September 2002, January 2003) | speech / conversation of the patient (language disorder; 1800 mg/day from September 2002, November 2002) | adverse events (language disorder; 1800 mg/day, 6 months from the start of the administration) | speech / conversation of the patient (language disorder; person, Epadel S600 600 mg 3 times a day (1800 mg/day) from September 2002, late October 2002) | correct reaction rate (rat) | side effects (overall conclusion) (language disorder; human, in vivo) | therapeutic effect for language disorder (overall conclusion) (language disorder; summary of Example 1) | NGF production [1]
CC/C=C\C/C=C\C/C=C\C/C=C\C/C=C\CCCC(=O)OCC [EPA-E, ethyl icosapentate] | able to carry on a complicated conversation comprising not only a single word but a plurality of words | further improvement was noted in the frequency of conversation, vocabulary, communication ability | the frequency of the conversation as well as vocabulary increased even further | responding “not hurting anywhere” when fallen from the bed, and waking up at night and responding “I am not sleepy” | no adverse event suggested to be caused by EPA-E was found | started to respond by saying “Good morning”, and also started brief conversation with the care giver during the meal |  |  |  | 
CC/C=C\C/C=C\C/C=C\C/C=C\C/C=C\CCCC(=O)O [EPA, all-cis-5,8,11,14,17-icosapentaenoic acid] |  |  |  |  |  |  | increase of correct reaction rate | no side effects | significant therapeutic effects for language disorder | action of enhancing NGF production

Source: patent US20070082949A1, “Agent for preventing and treating language disorders” (priority 2003, published 2007)
